The experiment is described as follows: pharmacological profile from the in vivo screening tests and in vitro receptor binding (tranquilizing profile). The following applies: potential indicated by test profile. From the text:
The following in vivo screening tests were utilized as the basis to determine the tranquilizing profile and potential side-effect liabilities of the instant compounds.
As further indication of the psychotropic activity and specificity of the instant compounds, state of the art in vitro central nervous system receptor binding methodology can be employed. […] Inhibition of radiolabeled ligand binding to such specific high affinity sites is considered a measure of a compound's ability to affect corresponding central nervous system functions or cause side effects in vivo. This principle is employed in the following in vitro assay which is given by way of example.
Another test predictive of side effects measures protection against norepinephrine lethality. This procedure essentially relates to alpha-block and the unwanted side effects which accompany it, such as sedation and blood pressure lowering.

Turning to “3-(4-Fluorophenyl)-3-methyl-1-[4-[4-(2-pyrimidinyl)-1-piperazinyl]butyl]-2,5-pyrrolidinedione [Example 7]”, the pharmacological profile entry is on record as “potential non-dopaminergic antipsychotic activity”. On to `O=C1CC2(CCc3ccccc3C2)C(=O)N1CCCCN1CCN(c2ncccn2)CC1` (stereo not drawn) [Example 16, 1'-[4-[4-(2-Pyrimidinyl)-1-piperazinyl]butyl]spiro[1,2,3,4-tetrahydronaphthalene-2,3'-pyrrolidine-2',5'-dione]], for which the pharmacological profile result is reported as “selective anxiolytic potential”. As for `O=C1CC(c2ccccc2)(c2ccccc2)C(=O)N1CCCCN1CCN(c2ncccn2)CC1` [Example 9, 3,3-Diphenyl-1-[4-[4-(2-pyrimidinyl)-1-piperazinyl]butyl]-2,5-pyrrolidinedione], the entry is “selective anxiolytic potential”.

Values taken from patent publication US4524206A, “1-Heteroaryl-4-(2,5-pyrrolidinedion-1-yl)alkyl)piperazine derivatives” (Mead Johnson & Company, priority 1983, dated 1985).
